Results taken from US12077503B2, “Substituted cyclic amides and their use as herbicides” (FMC CORPORATION, priority 2015, dated 2024).

Assays:
Type in all cases: in vivo
[1] = test system: ryegrass, Italian (Italian ryegrass, Lolium multiflorum); experiment: Test A preemergence; conditions: Lolium multiflorum, pre-emergence, 240 h, 0 to 100 scale (0 no effect, 100 complete control), read-out: Plant response rating, Ryegrass, Italian
Summary of the method: (§1)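 Compounds were formulated in a non-phytotoxic solvent mixture with surfactant and applied as a preemergence directed soil spray after seeding, or sprayed postemergence over plants 2 to 10 cm tall at the one- to two-leaf stage. Evaluation after about 10 d compared treated with untreated controls, using a scale from 0 (no effect) to 100 (complete control).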

[2] = test system: Galium (catchweed bedstraw, Galium aparine); experiment: Test A postemergence; conditions: Galium, post-emergence, 240 h, Postemergence, read-out: Plant response rating, Galium
Summary of the method: as §1

Kochia (Kochia scoparia) = experiment: Test A postemergence; conditions: Bassia scoparia, post-emergence, 240 h, Postemergence, read-out: Plant response rating, Kochia
Summary of the method: as §1

[3] = test system: barnyardgrass (Echinochloa crus-galli); experiment: Test A postemergence; conditions: Echinochloa crus-galli, post-emergence, 240 h, Postemergence, read-out: Plant response rating, Barnyardgrass
Summary of the method: as §1

[4] = test system: blackgrass (Alopecurus myosuroides); experiment: Test A postemergence; conditions: Alopecurus myosuroides, post-emergence, 240 h, Postemergence, read-out: Plant response rating, Blackgrass
Summary of the method: as §1

corn (Zea mays) = experiment: Test A postemergence; conditions: Zea mays, post-emergence, 240 h, Postemergence
Summary of the method: as §1

[5] = test system: giant foxtail (Setaria faberii); experiment: Test A postemergence; conditions: Setaria faberi, post-emergence, 240 h, Postemergence, read-out: Plant response rating, Foxtail, Giant
Summary of the method: as §1

[6] = test system: pigweed (Amaranthus retroflexus); experiment: Test A postemergence; conditions: Amaranthus retroflexus, post-emergence, 240 h, Postemergence, read-out: Plant response rating, Pigweed
Summary of the method: as §1

[7] = test system: ragweed (common ragweed, Ambrosia elatior); experiment: Test A postemergence; conditions: Ambrosia artemisiifolia, post-emergence, 240 h, Postemergence, read-out: Plant response rating, Ragweed
Summary of the method: as §1

[8] = test system: ryegrass, Italian (Italian ryegrass, Lolium multiflorum); experiment: Test A postemergence; conditions: Lolium multiflorum, post-emergence, 240 h, Postemergence, read-out: Plant response rating, Ryegrass, Italian
Summary of the method: as §1

[9] = test system: wheat (Triticum aestivum); experiment: Test A postemergence; conditions: Triticum aestivum, post-emergence, 240 h, Postemergence, read-out: Plant response rating, Wheat
Summary of the method: as §1

[10] = test system: barnyardgrass (Echinochloa crus-galli); experiment: Test B flooded paddy test; conditions: Echinochloa crus-galli, 360 h, Flood, 250 g ai/ha; visually evaluated after 13 to 15 d; read-out: Plant response rating, Barnyardgrass (0 to 100 scale where 0 is no effect and 100 is complete control)
Summary of the method: (§2)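 Evaluation by eye, against controls, occurred 13–15 d post-treatment in a greenhouse, using a 0 (no effect) to 100 (complete control) scale. Application was into the paddy water, 3 cm deep over the soil, on 2-leaf plants.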

[11] = test system: ducksalad (Heteranthera limosa); experiment: Test B flooded paddy test; conditions: Heteranthera limosa, 360 h, Flood, 250 g ai/ha; visually evaluated after 13 to 15 d; read-out: Plant response rating, Ducksalad (0 to 100 scale where 0 is no effect and 100 is complete control)
Summary of the method: as §2

rice (Oryra sativa) = experiment: Test B flooded paddy test; conditions: Oryza sativa, 360 h, Flood, 250 g ai/ha; visually evaluated after 13 to 15 d; read-out: Plant response rating, Rice (0 to 100 scale where 0 is no effect and 100 is complete control)
Summary of the method: as §2

[12] = test system: sedge, umbrella (small-flower umbrella sedge, Cyperus difformis); experiment: Test B flooded paddy test; conditions: Cyperus difformis, 360 h, Flood, 250 g ai/ha; visually evaluated after 13 to 15 d; read-out: Plant response rating, Sedge, Umbrella (0 to 100 scale where 0 is no effect and 100 is complete control)
Summary of the method: as §2

[13] = 125 g ai/ha, visual injury after approx. 10 d, 0 to 100 scale, 0 no effect, 100 complete control
[14] = 500 g ai/ha, visual injury, 0 to 100 scale (0 no effect, 100 complete control), approx. 10 d

Structure (SMILES): CN1CC[C@H](c2cccc(C(F)(F)F)c2)[C@@H](C(=O)Nc2ccc(F)c(F)c2F)C1=O [Compound 1395]
- pest or weed control at 500 g/ha ([1]; 500 g ai/ha, preemergence): 40%
- pest or weed control at 125 g/ha ([1]; Preemergence, 125 g ai/ha): 50%
- pest or weed control at 125 g/ha [2, 13]: 0%
- pest or weed control at 500 g/ha [2, 14]: 0%
- pest or weed control at 125 g/ha (Kochia (Kochia scoparia); [13]): 0%
- pest or weed control at 500 g/ha (Kochia (Kochia scoparia); [14]): 0%
- pest or weed control at 125 g/ha [3, 13]: 90%
- pest or weed control at 500 g/ha [3, 14]: 90%
- pest or weed control at 125 g/ha [4, 13]: 70%
- pest or weed control at 500 g/ha [4, 14]: 0%
- Corn plant response rating (crop injury, 0 = no effect, 100 = complete kill) at 125 g/ha (corn (Zea mays); [13]): 50%
- Corn plant response rating (crop injury, 0 = no effect, 100 = complete kill) at 500 g/ha (corn (Zea mays); [14]): 70%
- pest or weed control at 125 g/ha [5, 13]: 90%
- pest or weed control at 500 g/ha [5, 14]: 90%
- pest or weed control at 125 g/ha [6, 13]: 0%
- pest or weed control at 500 g/ha [6, 14]: 0%
- pest or weed control at 125 g/ha [7, 13]: 0%
- pest or weed control at 500 g/ha [7, 14]: 0%
- pest or weed control at 125 g/ha [8, 13]: 20%
- pest or weed control at 500 g/ha [8, 14]: 20%
- plant injury at 125 g/ha [9, 13]: 20%
- plant injury at 500 g/ha [9, 14]: 40%
- pest or weed control at 250 g/ha [10]: 90%
- pest or weed control at 250 g/ha [11]: 80%
- pest or weed control at 250 g/ha (rice (Oryra sativa)): 10%
- pest or weed control at 250 g/ha [12]: 0%
